Patent US12454675B2, “Method of increasing protein yield in mammalian cells in serum-free culture medium” (AGENCY FOR SCIENCE, TECHNOLOGY AND RESEARCH, priority 2016, dated 2025)

Experiments:
HEK293 cells = test: Disaccharides to support growth of HEK293 cells in PFCDM; type: cell-based; settings: 10 g/l sugar, seeding 1.0×10^6 cells/ml, 22 days
Source text: (§1) In (A) CHO-K1 cells were cultivated in a serum-free protein-free cell culture medium, HyQ PF-CHO, with 3.6 g/l of different sugars (maltose, sucrose, lactose, trehalose or glucose) as carbohydrate source. The viable cell densities (lined markers) and culture viabilities (marker only) of these cultures at the beginning and end of each passage over a period of 74 days were plotted. Cultures with sucrose, lactose or trehalose were terminated on Day 31 due to the decreased culture viabilities and reduced viable cell densities. The experiment was repeated with a seeding cell density of 1.0×10^6 cells/ml to obtain similar results. In (B) CHO-DG44 cells were cultivated with a seeding cell density of 1.0×10^6 cells/ml in a serum-free protein-free cell culture medium, HyQ PF-CHO, with 10 g/l of different sugars (maltose, sucrose, lactose, trehalose or glucose) as carbohydrate source. The viable cell densities (lined markers) and cell viabilities (marker only) of these cultures at the beginning and end of each passage over a period of 22 days were plotted. In (C) HEK293 cells were cultivated with a seeding cell density of 1.0×10^6 cells/ml in a protein-free chemically defined cell culture medium, PFCDM, with 10 g/l of different sugars (maltose, sucrose, lactose, trehalose or glucose) as carbohydrate source. The viable cell densities (lined markers) and cell viabilities (marker only) of these cultures at the beginning and end of each passage over a period of 22 days were plotted. Cultures with sucrose, lactose or trehalose were terminated on Day 14 due to the decreased culture viabilities and reduced viable cell densities.

CHO-K1 cells = test: Adaptation of CHO-K1 cells into HyQ PF-CHO media with different disaccharides; type: cell-based, Chinese Hamster; settings: 3.6 g/l sugar, seeding 0.3×10^6 cells/ml, 74 days
Description: Viable cell density and culture viability were determined by Trypan blue dye exclusion method using Vi-Cell XR Cell Viability Analyzer (Beckman Coulter, Brea, CA) according to manufacturer's instructions. For biochemical and other cell culture parameter analyses, 1 ml of culture sample was centrifuged at 8000 g for 10 minutes to obtain clarified supernatant. […] At each passage during the adaptation process, viable cell density and culture viability before passage and after inoculation into fresh media were determined. […] Osmolality of these culture media were determined to be between 308 and 324 mOsm/kg, well within the range for optimal mammalian cell culture. The viable cell densities and culture viabilities of these cultures at the beginning and end of each passage over a period of 74 days are shown in FIG. 1. […] However, culture viabilities and viable cell densities of the maltose culture started to pick up on Day 14. Proliferation of the cells in maltose culture then maintained over the period of the time studied, while those in the other disaccharides were terminated on Day 31 due to the lack of cell growth and depressed culture viabilities.

CHO-DG44 cells = test: Disaccharides to support growth of CHO-DG44 cells in HyQ PF-CHO; type: cell-based, Chinese Hamster; settings: 10 g/l sugar, 22 days
Source text: as §1
To determine whether the same approach can be applied on other CHO cell lines, the use of disaccharides to support the growth of CHO-DG44 cells was evaluated. These cells were cultivated with 10 g/l of maltose, sucrose, lactose, trehalose or glucose as energy source in a serum-free protein-free cell culture medium HyQ PF-CHO. The viable cell densities and culture viabilities of these cultures at the beginning and end of each passage over a period of 22 days are shown in FIG. 1B.

CHO cell culture = settings: 3.6 g/l of monosaccharides; cited from earlier work

OC[C@H]1O[C@@](CO)(O[C@H]2O[C@H](CO)[C@@H](O)[C@H](O)[C@H]2O)[C@@H](O)[C@@H]1O [sucrose]
proliferation in serum-free culture medium with the sugar as sugar source (HEK293 cells): not | proliferation in serum-free protein-free culture medium with the sugar as sugar source (CHO-K1 cells): not | proliferation in serum-free protein-free culture medium with the sugar as sugar source (CHO-DG44 cells): not

OC[C@H]1O[C@@H](O[C@H]2[C@H](O)[C@@H](O)C(O)O[C@@H]2CO)[C@H](O)[C@@H](O)[C@H]1O (some centres unmarked) [lactose]
proliferation in serum-free culture medium with the sugar as sugar source (HEK293 cells): not | proliferation in serum-free protein-free culture medium with the sugar as sugar source (CHO-K1 cells): not | proliferation in serum-free protein-free culture medium with the sugar as sugar source (CHO-DG44 cells): not

O=C[C@H](O)[C@@H](O)[C@@H](O)[C@H](O)CO [galactose]
specific consumption rate (CHO cell culture): 0.21 ng/cell/day

O=C(CO)[C@@H](O)[C@H](O)[C@H](O)CO [fructose]
specific consumption rate (CHO cell culture): 0.21 ng/cell/day

OC[C@H]1O[C@H](O[C@H]2O[C@H](CO)[C@@H](O)[C@H](O)[C@H]2O)[C@H](O)[C@@H](O)[C@@H]1O [trehalose]
proliferation in serum-free culture medium with the sugar as sugar source (HEK293 cells): not | proliferation in serum-free protein-free culture medium with the sugar as sugar source (CHO-K1 cells): not | proliferation in serum-free protein-free culture medium with the sugar as sugar source (CHO-DG44 cells): not
